In US7846474B2, “Use of bisphosphonates for the treatment of osteogenesis imperfecta” (Gador S.A., priority 1999, dated 2010):

Assays:
growth of cartilage = settings: in vivo; cited from earlier work
[1] = test system: children with Osteogenesis Imperfecta; test: Continuous disodium pamidronate treatment of children with Osteogenesis Imperfecta (absorptiometry, biochemical markers, quantitative computerized tomography of the tibia); type: in vivo, human
Experimental: The doses were adjusted to the patient's condition with a mean of 3.5 mg/Kg of body weight/day by oral administration, or 20 mg per dose, every 3-6 months, by intravenous administration in one of the cases.
The latter can be attributed to the scarce development of inertia due to the internal osseous lack of resorption in the diaphysis. In FIG. 2 it can be observed that in children with normal development, there exists a range of cortical mineralization which contributes to the diaphysial stability (resistance to deformation). This range is of approximately 1020-1100 mg/cm3.
The administration period of bisphosphonates was 2-4.5 years, indicating the existence of a wide interindividual variability in order to obtain the “mineralizing” effect and the inconvenience of adopting fixed periods of treatments.

Structure (SMILES)	effect on the growth of cartilage (growth of cartilage)	cortical mineralization range reached (cortical mineral density of the tibia, vDMO) ([1]; FIG. 2, range of normal children that contributes to diaphysial stability, reached by treated OI children)	osseous metabolic turnover (biochemical markers of osseous resorption and formation) ([1]; OI type III/IV children, continuous scheme 2.5-4 years, mean 3.5 mg/Kg/day oral or 20 mg i.v. every 3-6 months, urinary hydroxyproline/creatinine, serum alkaline phosphatase, osteocalcine)	total apparent mineral density of the lumbar vertebrae and the neck of the femur ([1]; osseous absorptiometries, continuous scheme 2.5-4 years)
CN(C)CCC(O)(P(=O)(O)O)P(=O)(O)O [olpadronate]	not to affect the growth of cartilage			
NCCC(O)(P(=O)(O)O)P(=O)(O)O [pamidronate, disodium pamidronate]		1020-1100 mg/cm3	reduction of the osseous metabolic turnover	progressive improvement
